Results from patent publication EP2070549A1, “THERAPEUTIC AGENT FOR ACCELERATION OF SPINAL NERVE REPAIR COMPRISING DESACYL GHRELIN OR DERIVATIVE THEREOF AS ACTIVE INGREDIENT” (University of Miyazaki, priority 2006, dated 2008).
Values belong to the substance of their own block, whether it stands above or below them.

Legend:
[1] = test system: des-acyl ghrelin specific binding sites in the membrane fractions of fetal spinal cord; assay: Binding of [125I]-labelled des-acyl ghrelin to membrane fractions of fetal spinal cord (saturation and competition); set-up: species or system rat; conditions: competition with 0.1 nM labeled des-acyl ghrelin
Method: For instance, the identity of a substance that acts on a des-acyl ghrelin specific binding site, namely, the identity of a substance having binding activity for a des-acyl ghrelin specific binding site can be determined, as will be described later in Example 1, by first preparing samples from a tissue of interest (e.g., membrane fractions prepared from an extracted spinal cord tissue), then incubating the sample in the presence of a test substance, with or without an added radioactive ligand such as [^125I]-labeled des-acyl ghrelin, measuring the radioactivity of the samples, and analyzing the values obtained. For analysis of the values, techniques known to skilled artisans may be employed, as exemplified by the method of Scatchard and a program such as GraphPAD Prism 4 program, which are applied to calculate the maximum number of binding sites (Bmax) and the dissociation constant (Kd). The des-acyl ghrelin specific binding sites are yet to be characterized specifically but one place of their occurrence is in rat spinal cord cells, in particular, on rat spinal cord cell membranes. […]
With [^125I]-labelled des-acyl ghrelin used as a radioactive ligand, the binding of des-acyl ghrelin to the tissue membranes of fetal spinal cord was studied. […] The radioactivity of the membranes on the filters was measured with a gamma counter. […]

[2] = test system: cultured fetal spinal neuronal cells; assay: BrdU incorporation into cultured fetal spinal neuronal cells, Cell Proliferation ELISA (Example 2); type: cell-based, rat; conditions: 0.03-300 nM tested, 12 hours, then BrdU 6 hours; FIG. 2A
Method: • (1) Embryos were extracted from a pregnant Wistar rat at day 17 under anesthesia. Spinal cords were collected from these embryos and subjected to papain digestion in Hank's balanced salt solution; as a result of subsequent mechanical separation by pipetting, a dispersion of fetal spinal neurons was obtained. […] These dispersed cells were suspended in a DMEM medium containing NaHCO3, 5% fetal bovine serum, penicillin (100 U/mL) and streptomycin (100 µg/mL), followed by plating onto laminin-coated 96-well multi-plates at 10^5 cells per well. After incubation for 4 days, des-acyl ghrelin (0.03-300 nM) was added to the culture and incubation was conducted for 12 hours; then, 5-bromo-2'-deoxyuridine (BrdU) ([…]) was added and incubation was conducted for an additional 6 hours; then, the des-acyl ghrelin was investigated for its action on BrdU incorporation.
• (2) After the end of the above incubation, the cells were recovered and using Cell Proliferation ELISA Kit (Roche Diagnostic GmbH, Mannheim, Germany), the amount of BrdU incorporation into the fetal spinal neuronal cells was measured to investigate the action for proliferating the spinal neuronal cells.

[3] = test system: cultured fetal spinal neuronal cells; assay: BrdU positive cells by anti-BrdU immunostaining in cultured fetal spinal neuronal cells (Example 2); type: cell-based, rat; conditions: compared to physiological saline, FIG. 2B, 2C
Method: • (1) Embryos were extracted from a pregnant Wistar rat at day 17 under anesthesia. Spinal cords were collected from these embryos and subjected to papain digestion in Hank's balanced salt solution; as a result of subsequent mechanical separation by pipetting, a dispersion of fetal spinal neurons was obtained. […] These dispersed cells were suspended in a DMEM medium containing NaHCO3, 5% fetal bovine serum, penicillin (100 U/mL) and streptomycin (100 µg/mL), followed by plating onto laminin-coated 96-well multi-plates at 10^5 cells per well. […]
• (3) After the end of the above incubation (1), the cells were fixed with methanol and glacial acetic acid, had their DNA denatured with 2 N HCl; thereafter, the BrdU incorporated into the cells was measured by detecting the BrdU positive cells using a rat anti-BrdU monoclonal antibody (1:1000, Abcam, Cambridge, UK) as a primary antibody, and also using Cy™ 3-conjugated donkey anti-rat IgG polyclonal antibody (1:1000, Jackson ImmunoResearch Laboratories, Inc., PA, USA) as a secondary antibody, in order to investigate the action for proliferating spinal cord cells. […]

[4] = test system: cultured spinal neuronal cells; assay: BrdU incorporation into cultured spinal neuronal cells, Cell Proliferation ELISA (Example 3); type: cell-based, rat; conditions: for BrdU incorporation into the cells, Mean: n 6, Control = 100.0
Text: Embryos were extracted from a pregnant Wistar rat at day 16 by opening the abdomen under anesthesia. Spinal cords were collected from these embryos and subjected to papain digestion in Hank's balanced salt solution; as a result of subsequent mechanical separation by pipetting, a dispersion of fetal spinal nerve cells was obtained. After being filtered and centrifuged, the dispersed cells were suspended in a DMEM medium containing NaHCO3, 5% fetal bovine serum, penicillin (100 U/mL) and streptomycin (100 µg/mL), followed by plating onto laminin-coated 96-well multi-plates at 10^5 cells per well. After incubation for 4 days, 5-bromo-2'-deoxyuridine (BrdU) (10 µM) was added and incubation was conducted for 6 hours; further, rat des-acyl ghrelin, des-acyl ghrelin(1-5)-NH2 (GSSFL-NH2, SEQ ID NO:22), des-acyl ghrelin(1-7)-NH2 (GSSFLSP-NH2, SEQ ID NO:23) or des-acyl ghrelin(1-15)-NH2 (GSSFLSPEHQRVQQR-NH2, SEQ ID NO:24) was added in amounts of 0.03 - 3 nM and incubation was conducted for 12 hours before investigating the action of des-acyl ghrelin and its derivatives on BrdU incorporation.
After the end of incubation, the cells were recovered and using Cell Proliferation ELISA Kit (Roche Diagnostic GmbH, Mannheim, Germany), the amount of BrdU incorporation into the cells was measured to investigate the action for proliferating the spinal neuronal cells.

[5] = test system: rat models with injured spinal cord; assay: Grafting of spinal neuronal cells and local administration of des-acyl ghrelin to rat models with injured spinal cord, frequency of standing up; type: in vivo; conditions: for frequency of a rat standing up per unit time: 3-minute observation
Method: In accordance with the procedure described in Morino, T. et al, Neuroscience Research, 2003, vol. 46, pp 309-318, the grafting of spinal neuronal cells and local administration of des-acyl ghrelin to rat models with injured spinal cord were assessed. Male SD rats (8 to 9 weeks old) were anesthetized with pentobarbital and incised in the back to expose a vertebra ([…]). After excising the vertebral arch, a dental drill was used to open a window with a diameter of […], and a stainless steel needle with a silicone rubber fixed thereto was applied vertically, followed by loading of the top with a 20-g weight. Following a compression time of 30 minutes, a damaging drop equivalent to a weight of about 100 g was finally applied from above to construct models suffering a movement disorder in the lower limbs. The animals were divided into three groups: 1) a group under sham operation; 2) a control group with injured spinal cord; and 3) a group with injured spinal cord, treated by cell grafting, and locally administered with des-acyl ghrelin. The group under sham operation received laminectomy but was simply sutured in the muscle and skin thereafter. After injuring the spinal cord, cultured spinal neuronal cells (10^5 cells/25 µL) were grafted subdurally. Rat des-acyl ghrelin was administered subdurally in an amount of 1 nmol together with the cells.
Twenty-four hours after the operation, the rats were transferred into a see-through cage and observed for the frequency of their standing up (by 3-minute observation). The principal item of observation was the frequency per unit time of the rat standing up (in such a posture that it lifted the upper limbs and supported the body weight only with the lower limbs) was counted to assess the function of its hind limbs.

[6] = target: des-acyl ghrelin specific binding sites in membrane fractions of rat fetal spinal cord (rat); assay: saturation radioligand binding, rat fetal spinal cord membranes, Scatchard/GraphPAD Prism
[7] = target: des-acyl ghrelin specific binding sites in membrane fractions of rat fetal spinal cord (rat); assay: competition with 0.1 nM [125I]-des-acyl ghrelin on rat fetal spinal cord membranes

- concentrations at which the binding of the labeled des-acyl ghrelin was displaced [1]: ≥ 10^-3 M
- IC50 ([1]; 4 °C for an hour): 23.5 nM
Substance: Des-acyl ghrelin
- concentration that could increase the BrdU incorporation into the cells [2]: ≥ 3 nM
- BrdU incorporation [3]: increased
- number of cells that incorporated BrdU [3]: increased
- BrdU incorporation into the cells (in words) ([4]; 0.03 to 3 nM): increased
- BrdU incorporation into the cells, Mean ([4]; Concentration 0.03 nM): 113.6
- BrdU incorporation into the cells, Mean ([4]; Concentration 0.3 nM): 112.6
- BrdU incorporation into the cells, Mean ([4]; Concentration 3 nM): 108.2
- frequency of a rat standing up per unit time ([5]; 24 hours after operation, 1 nmol subdurally together with grafted cells (10^5 cells/25 µL)): 8.0 ± 0.0
- frequency of a rat standing up per unit time ([5]; Initial (before operation)): 15.0 ± 2.0
- frequency of standing up (in words) ([5]; combination of cell grafting and local administration, 24 hours after operation): recovery

- Bmax (fmol/mg protein) [6]: 8.79
Substance: [^125I]-labelled des-acyl ghrelin (peptide)

- IC50 [7]: 23.5 nM
Substance: unlabelled des-acyl ghrelin (peptide)
